Patent US8481459B2, “Chemical inhibitors of ethylene biosynthesis” (Academia Sinica, priority 2010, dated 2013)

Tested on: gene expression in etiolated eto1-4 seedlings
Test: Transcriptional profiling (ATH1 GeneChip microarray) of etiolated eto1-4 seedlings
Format: in vivo, Arabidopsis thaliana
Settings: ratio eto1-4 treated to eto1-4 (no treatment)
Procedure: For chemical treatments, seeds were sown on 0.5×MS agar medium supplemented with 10 μM chemicals (AVG, compounds 9393, 9370, and 7303) or DMSO (as control). Arabidopsis seeds were stratified in the dark at 4° C. for 4 days, then germinated in the dark for 3 days at 22° C. Approximately 2,000 etiolated seedlings of the wild type or eto1-4 were used to collect tissues for preparation of total RNA in each microarray experiment with Arabidopsis ATH1 GeneChip (Affymetrix). Extraction of RNA followed an established protocol (Chang, et al. (1993) Plant Mol. Biol. Rep. 11, 113-117). Total RNA (10 μg) was used to prepare biotinylated cRNA for hybridization to ATH1 GeneChip in the experiments disclosed herein. Experiments were repeated by 2 independent biological duplicates, and candidate genes present in both experiments were selected for further analysis. The MASS method was used for data analysis and normalization by all sample medium. Candidate genes were selected by the following criteria. First, genes with 1.5-fold differential expression between the wild type and eto1-4 were selected as the master gene pool, which was then used for comparison in treatments with AVG and individual exemplary compounds. Data were presented in hierarchical clustering and Venn diagram format. Agilent GeneSpring GX and Bioconductor software were used to analyze the expression profile data. Gene Ontology descriptions were generated by GeneSpring GX and further referred to the TAR GO database. Raw data are available in the GEO database (http://www.ncbi.nlm.nih.gov/geo) with Accession no. GSE20897.
The filtered and normalized expression data set from 22810 probes on the ATH1 Genechip was used for hierarchical clustering of gene expression profiles for comparison between AVG and the exemplary invention compounds in eto1-4. It was identified that 1,446 genes show at least 1.5-fold difference in expression between the WT and eto1-4 and used them as the master gene pool for clustering analysis (FIG. 7A). […] These genes likely contribute to the etiolated phenotype of eto1-4 by responding to elevated endogenous ethylene. To determine whether the exemplary compounds have specific r overlapping functions with AVG to suppress the eto1-4 phenotype, genes that are regulated by individual exemplary invention compounds and AVG for Venn diagram analysis were clustered (FIG. 7B). More than 63% of genes (356/561 for compound 9393; 389/561 for compound 9370; 399/561 for compound 7303; FIG. 7B) with expression associated with AVG were co-regulated by the exemplary invention compounds, which indicates an overlap function in suppression of the ethylene phenotype in eto1-4. […] Next genes co-regulated by all of the exemplary invention compounds and AVG were examined by performing a clustering analysis using the co-regulated genes identified in FIG. 7B: 356 (compound 9393 vs AVG), 389 (compound 9370 vs AVG) and 399 genes (compound 7303 vs AVG). It was uncovered that 276 genes were co-regulated by all of the exemplary invention compounds and AVG (FIG. 7C and Table 2). On the basis of GO descriptions generated by Gene Spring GX and TAIR database, the 276 genes were divided into subgroups related to their biological functions (Table 2). […] In addition, stress- and pathogenesis-related genes were among the co-regulated genes, possibly because ethylene is involved in both biotic and abiotic stresses.
Genes (1446 non-redundant loci) were selected by 1.5-fold differential expression between eto1-4 and WT as the master pool for analysis. These genes were used for comparison between chemical treatments by AVG and the exemplary invention compounds. The finalized 276 genes that are co-regulated by AVG and all of the exemplary invention compounds are shown. Locus ID also present in Nemhauser et al. (Nemhauser, et al. (2006) Cell 126, 467-475).

For `CC1(C)CC(=O)c2cnc(NC3CCCC3)nc2C1` [Compound 9393], the “Signal Fold Change AT3G14850, unknown biological function” value was 0.29, the “Signal Fold Change AT3G15890 protein kinase” value was 1.98 and the “Signal Fold Change AT3G16450 jacalin lectin protein” value was 2.09. The “Signal Fold Change AT3G16470 jacalin lectin protein” value was 4.09, the “Signal Fold Change AT3G16690, unknown biological function” value was 3.33 and the “Signal Fold Change AT3G17680, unknown biological function” value was 0.33. The “Signal Fold Change AT3G20130 cytochrome P450” value was 1.72, the “Signal Fold Change AT3G21770 peroxidase 30” value was 1.57 and the “Signal Fold Change AT3G22620 lipid transfer protein” value was 1.94. The “Signal Fold Change AT3G23150 ethylene receptor, putative (ETR2)” value was 0.15, the “Signal Fold Change AT3G23800, unknown biological function” value was 0.46 and the “Signal Fold Change AT3G24670, unknown biological function” value was 0.32. The “Signal Fold Change AT3G25710 bHLH protein” value was 2.27, the “Signal Fold Change AT3G25730 AP2-containing transcription factor” value was 0.26 and the “Signal Fold Change AT3G25980 mitotic spindle checkpoint protein” value was 2.35. The “Signal Fold Change AT3G27580 protein kinase” value was 0.48, the “Signal Fold Change AT3G28290, unknown biological function” value was 0.29 and the “Signal Fold Change AT3G29250 short-chain dehydrogenase” value was 4.05. For the same compound, the “Signal Fold Change AT3G30775 proline oxidase, mitochondrial” value was 2.13, the “Signal Fold Change AT3G43270 pectinesterase protein” value was 0.26 and the “Signal Fold Change AT3G44820, response to light stimulus, phototropic-responsive NPH3 protein” value was 2.81. The “Signal Fold Change AT3G44990 endo-xyloglucan transferase” value was 0.28, the “Signal Fold Change AT3G45710 proton-dependent oligopeptide transport (POT) protein” value was 1.98 and the “Signal Fold Change AT3G46130 myb transcription factor (MYB48)” value was 2.63. The “Signal Fold Change AT3G46700 UDP-glucosyl transferase” value was 3.09, the “Signal Fold Change AT3G47210, unknown biological function” value was 2.53 and the “Signal Fold Change AT3G47250, unknown biological function” value was 3.68. The “Signal Fold Change AT3G49780 phytosulfokines 3 (PSK3)” value was 4.97, the “Signal Fold Change AT3G50660 steroid 22-alpha-hydroxylase” value was 4.32 and the “Signal Fold Change AT3G51410, unknown biological function” value was 0.32. For the same compound, the “Signal Fold Change AT3G51970, unknown biological function” value was 2.49, the “Signal Fold Change AT3G52180 protein tyrosine phosphatase” value was 0.32 and the “Signal Fold Change AT3G52920 expressed protein (defense response)” value was 3.09. For the same compound, the “Signal Fold Change AT3G53540, unknown biological function” value was 0.38, the “Signal Fold Change AT3G56480, unknown biological function” value was 2.21 and the “Signal Fold Change AT3G58710 WRKY transcription factor” value was 2.14. For the same compound, the “Signal Fold Change AT3G59370, unknown biological function” value was 2.91, the “Signal Fold Change AT3G59710 short-chain dehydrogenase” value was 0.39 and the “Signal Fold Change AT3G59900, unknown biological function” value was 0.43. The “Signal Fold Change AT3G60520, unknown biological function” value was 0.27, the “Signal Fold Change AT3G61160 shaggy-related protein kinase beta/ASK-beta (ASK2)” value was 3.26 and the “Signal Fold Change AT4G00730 anthocyaninless2” value was 0.55. For the same compound, the “Signal Fold Change AT4G01410, unknown biological function” value was 0.40, the “Signal Fold Change AT4G03140 short-chain dehydrogenase” value was 0.41 and the “Signal Fold Change AT4G08300, unknown biological function” value was 3.06. For the same compound, the “Signal Fold Change AT4G09570 calcium-dependent protein kinase” value was 0.36, the “Signal Fold Change AT4G10910, unknown biological function” value was 4.86 and the “Signal Fold Change AT4G11190 disease resistance-responsive protein” value was 5.56. The “Signal Fold Change AT4G11280 ACC synthase 6” value was 1.87, the “Signal Fold Change AT4G11310 cysteine proteinase” value was 8.01 and the “Signal Fold Change AT4G12080, unknown biological function” value was 1.88. The “Signal Fold Change AT4G12410 auxin-responsive protein” value was 2.76, the “Signal Fold Change AT4G12480 lipid transfer protein” value was 0.20 and the “Signal Fold Change AT4G13210, unknown biological function” value was 0.29. The “Signal Fold Change AT4G15550 UDP-glucose:indole-3-acetate beta-D-glucosyltransferase” value was 0.36, the “Signal Fold Change AT4G15920, unknown biological function” value was 13.52 and the “Signal Fold Change AT4G17220 expressed protein (cytoskeleton organization and biogenesis)” value was 2.49. For the same compound, the “Signal Fold Change AT4G18340 glycosyl hydrolase” value was 2.57, the “Signal Fold Change AT4G23410 senescence-associated protein” value was 1.97 and the “Signal Fold Change AT4G25780, unknown biological function” value was 9.02. For the same compound, the “Signal Fold Change AT4G26010 peroxidase” value was 0.45, the “Signal Fold Change AT4G28085, unknown biological function” value was 2.86 and the “Signal Fold Change AT4G31000, unknown biological function” value was 0.55. The “Signal Fold Change AT4G32920, unknown biological function” value was 2.39, the “Signal Fold Change AT4G34560, unknown biological function” value was 2.00 and the “Signal Fold Change AT4G34760 auxin-responsive protein” value was 0.20. For the same compound, the “Signal Fold Change AT4G35060 copper chaperone” value was 3.14, the “Signal Fold Change AT4G35150, unknown biological function” value was 0.32 and the “Signal Fold Change AT4G36520, unknown biological function” value was 2.71. The “Signal Fold Change AT4G37220 stress-responsive protein” value was 7.29, the “Signal Fold Change AT4G38690, signal transduction, 1-phosphatidylinositol” value was 2.55 and the “Signal Fold Change AT4G39210 ADP-glucose pyrophosphorylase” value was 0.44. The “Signal Fold Change AT4G39800 inositol-3-phosphate synthase isozyme 1” value was 2.16, the “Signal Fold Change AT4G39840, unknown biological function” value was 0.37 and the “Signal Fold Change AT5G01210, unknown biological function” value was 0.33. The “Signal Fold Change AT5G01300, unknown biological function” value was 1.40, the “Signal Fold Change AT5G02260, cell wall organization and biogenesis, expansin (EXP9)” value was 0.16 and the “Signal Fold Change AT5G02540 short-chain dehydrogenase” value was 0.17. For the same compound, the “Signal Fold Change AT5G03160 DNAJ heat shock N-terminal domain-containing protein” value was 1.90, the “Signal Fold Change AT5G04080, unknown biological function” value was 2.48 and the “Signal Fold Change AT5G05180, unknown biological function” value was 1.79. For the same compound, the “Signal Fold Change AT5G06200, unknown biological function” value was 1.94, the “Signal Fold Change AT5G08240, unknown biological function” value was 1.79 and the “Signal Fold Change AT5G08260 serine carboxypeptidase S10 protein” value was 0.50. The “Signal Fold Change AT5G08370 alpha-galactosidase” value was 2.77, the “Signal Fold Change AT5G09980 expressed protein (defense response)” value was 0.35 and the “Signal Fold Change AT5G10720 sensory transduction histidine kinase” value was 0.48. The “Signal Fold Change AT5G11540, unknown biological function” value was 5.32, the “Signal Fold Change AT5G12170, response to cadmium ion, expressed protein” value was 0.36 and the “Signal Fold Change AT5G13870 endo-xyloglucan transferase” value was 0.27. The “Signal Fold Change AT5G13910 AP2/EREBP-like transcription factor” value was 0.46, the “Signal Fold Change AT5G14780 formate dehydrogenase” value was 0.44 and the “Signal Fold Change AT5G14920 gibberellin-regulated protein” value was 0.35. For the same compound, the “Signal Fold Change AT5G15290, unknown biological function” value was 2.43, the “Signal Fold Change AT5G15530 biotin carboxyl carrier protein 2” value was 0.54 and the “Signal Fold Change AT5G15830 bZIP transcription factor protein” value was 3.94. The “Signal Fold Change AT5G18470, unknown biological function” value was 0.13, the “Signal Fold Change AT5G18670 beta-amylase” value was 0.50 and the “Signal Fold Change AT5G18860, unknown biological function” value was 2.02. The “Signal Fold Change AT5G18970, unknown biological function” value was 2.49, the “Signal Fold Change AT5G19890 peroxidase” value was 0.13 and the “Signal Fold Change AT5G19930, unknown biological function” value was 1.64. The “Signal Fold Change AT5G20410 monogalactosyldiacylglycerol synthase” value was 2.77, the “Signal Fold Change AT5G22310, unknown biological function” value was 0.37 and the “Signal Fold Change AT5G22860 serine carboxypeptidase S28 protein” value was 2.63. For the same compound, the “Signal Fold Change AT5G23750, unknown biological function” value was 3.60, the “Signal Fold Change AT5G24870, unknown biological function” value was 2.16 and the “Signal Fold Change AT5G25140 cytochrome P450” value was 4.21. For the same compound, the “Signal Fold Change AT5G25160 zinc finger (C2H2 type) protein” value was 2.60, the “Signal Fold Change AT5G25190 ethylene-responsive element-binding protein” value was 0.32 and the “Signal Fold Change AT5G34940, unknown biological function” value was 0.49. The “Signal Fold Change AT5G37300, unknown biological function” value was 3.86, the “Signal Fold Change AT5G38930, unknown biological function” value was 0.33 and the “Signal Fold Change AT5G39860 bHLH protein” value was 2.39. The “Signal Fold Change AT5G41900 hydrolase” value was 2.67, the “Signal Fold Change AT5G44410, unknown biological function” value was 3.37 and the “Signal Fold Change AT5G44580, unknown biological function” value was 0.22. The “Signal Fold Change AT5G46890 lipid transfer protein” value was 3.64, the “Signal Fold Change AT5G47240, unknown biological function” value was 3.96 and the “Signal Fold Change AT5G47330 palmitoyl protein thioesterase protein” value was 2.52. For the same compound, the “Signal Fold Change AT5G47450 major intrinsic protein” value was 2.24, the “Signal Fold Change AT5G47950, unknown biological function” value was 1.93 and the “Signal Fold Change AT5G48490 lipid transfer protein” value was 9.12. The “Signal Fold Change AT5G48900, unknown biological function” value was 0.55, the “Signal Fold Change AT5G49900, unknown biological function” value was 2.24 and the “Signal Fold Change AT5G50720 ABA-responsive protein (HVA22e)” value was 2.52. For the same compound, the “Signal Fold Change AT5G52120 SKP1 interacting partner 3 protein” value was 5.39, the “Signal Fold Change AT5G53190, unknown biological function” value was 4.35 and the “Signal Fold Change AT5G53830, unknown biological function” value was 0.40. The “Signal Fold Change AT5G56320, cell wall organization and biogenesis, expansin (EXP14)” value was 3.15, the “Signal Fold Change AT5G58660, unknown biological function” value was 0.34 and the “Signal Fold Change AT5G59540 oxidoreductase” value was 0.44. For the same compound, the “Signal Fold Change AT5G63450 cytochrome P450” value was 6.43, the “Signal Fold Change AT5G63650 serine/threonine protein kinase” value was 0.42 and the “Signal Fold Change AT5G65970 seven transmembrane MLO protein” value was 2.60. The “Signal Fold Change AT5G66310, microtubule-based movement, kinesin motor protein” value was 0.48, the “Signal Fold Change AT5G66400 dehydrin (RAB18)” value was 1.09 and the “Signal Fold Change AT5G66440, unknown biological function” value was 0.30. The “Signal Fold Change AT5G66460 (1-4)-beta-mannan endohydrolase” value was 0.51 and the “Signal Fold Change AT5G66780, unknown biological function” value was 0.78.
